Earlier results as cited in patent US20100075916A1, “SUBSTITUTED QUINAZOLINE INHIBITORS OF GROWTH FACTOR RECEPTOR TYROSINE KINASES” (AUSPEX PHARMACEUTICALS, INC., priority 2008, published 2010).

Key:
[1] = humans
[2] = vandetanib administration

## COc1cc2c(Nc3ccc(Br)cc3F)ncnc2cc1OCC1CCN(C)CC1 [Vandetanib, N-(4-bromo-2-fluoro-phenyl)-6-methoxy-7-[(1-methyl-4-piperidyl)methoxy]quinazolin-4-amine]
[1]
  elimination halflife: approximately 120 hours
  volume of distribution: large volume of distribution
[1]; after oral administration
  lag time before the drug is detectable in plasma: 0.801 h
[1]; oral administration
  Ka (absorption): 0.476 h⁻¹
[2]
  common side effects: rash, diarrhea, QTc prolongation, hypertension, and neutropenia
